Data reported in patent US6998387B1, “Human appetite control by glucagon-like peptide receptor binding compounds” (Amylin Pharmaceuticals, Inc., priority 1998, dated 2006).
Entries after “also recorded” stand apart in the source; their conditions may differ. Read-outs that look alike come from different tables or passages of the source.

Key:
healthy male subjects = test: Effect of graded intravenous doses of synthetic human GLP-1 on food intake (Example 1); settings: for Calorie intake / Fluid intake / Food quantity / Meal duration: 16 healthy male subjects, mean, SEM
Method: A randomized, double-blind design was carried out with 16 healthy men aged 23.6±0.5 years. The weight of all subjects was within normal range considering their age, sex, and height. Each subject gave written informed consent for the study.
Four treatments (0, 0.375, 0.75 and 1.5 pmol/kg), separated by at least 7 days, were administered to the 16 subjects. […] An identical standard meal was presented to the subjects on each occasion. The meal consisted of orange juice as an appetizer (480 kcal per 1); ham sandwiches (60 g bread, 10 g butter, 25 g ham 266 kcal per sandwich) and more orange juice and chocolate pudding (172 kcal per 100 g): coffee with cream and sugar (coffee could be sweetened if desired; therefore both cream and sugar were optional @ 12 g cream=20 kcal, 4.5 sugar=18 kcal). No other food or liquid was allowed during the study. At the end of the study, the amount of food eaten and the amount of fluid ingested was measured by absolute weight from which total caloric intake (food and fluid intake) was calculated.
Each subject was free to eat and drink as much as they wished, but the order of food intake had to follow the above schedule. To reduce participant's awareness of the amount of food being provided, food was served in excess.
On the first day of each treatment, each subject ate breakfast, if this was their normal custom; however, no snacks were allowed after 8:00 a.m. […] Infusions were delivered by ambulatory infusion pumps through a teflon catheter inserted into a forearm vein. Participants were able to sit, eat, stand and walk comfortably while receiving infusions. At 60 minutes after the start of the respective infusion, the test meal was presented and each participant was invited to eat and drink as much as they liked.
Beginning at 12:00 noon, the subjects scored their subjective feelings of hunger and fullness at 15 minute intervals throughout the treatments using a visual analogue scale of 0–10 and indicated the scores on a questionnaire. The scales and scores were designed as previously described (Welch I. M. et al. Gut 29:306–311 (1988); Welch I. M. et al. Gastroenterology 89:1293–1297 (1985); Drewe, J. et al. Gastroenterology 102:1654–1659 (1982)). For example, a score of 0 for hunger indicated the subject was not hungry at all, 2 indicated slightly hungry, 5 indicated moderately hungry, 8 indicated very hungry, and 10 indicated absolutely ravenous.
The quantity of food eaten and volume of fluid drunk was measured. The time for each subject to complete their meal was also measured. From these observations, the average rate of food and fluid intake, as well as the calorie intake, could be calculated. In the pre-meal period and after eating, blood was drawn at regular intervals into ethylenediaminetetraacetic acid (EDTA) tubes containing aprotinine (1000 KIU/ml blood) for glucose and hormone determinations.
The peptide was dissolved in 0.9% saline containing 0.5% human serum albumin, and prepared under aseptic conditions. Aliquots of 50 μg/5 ml were stored at −20° C. […] Treatments were delivered in a double-blind fashion.
The amount of food eaten and the amount of fluid drunk, the corresponding energy intake, and the duration of meal consumption were compared between the four by one-way analysis of variance (ANOVA) using the general linear model (GLM) procedure of the SAS software package (SAS Release 6.03. Cary, N C: SAS Institute, 1988). In the event of significant differences, ANOVA was followed by the Newman-Keuls multi-comparison test for pairwise comparisons (Sachs, L. Angewandte Statistik. Berlin, Springer, (1984)). […] Scores for hunger and fullness were compared at the different time points before and after meals between the different treatments using multiple paired t-tests with Bonferroni correction (Sachs, L. Angewandte Statistik. Berlin, Springer, (1984)).

[1] = Plasma glucose and hormone concentrations during graded GLP-1 infusion (Example 1); format: in vivo, human; settings: healthy male subjects
Method: Glucose concentrations were measured by the hexokinase method. Plasma hormone concentrations of insulin, cholecystokinin, GLP-1 and leptin were measured as depicted in FIG. 1. All hormone concentrations were determined by specific radioimmunoassay systems. For insulin and leptin concentrations commercially available test kits were used. […] GLP-1 was measured as previously described (Schirra, J. et al. Proc. Assoc. Am. Phys. 109(1):84–971 (1997)). The detection limit of the GLP-1 assay was 2 fmol/tube. […] Intra-assay and inter-assay coefficients of variation were 3.4% and 10.4%, respectively.

[2] = test system: patients with diabetes mellitus type 2; test: Effect of GLP-1 infusion on eating behaviour in diabetes mellitus type 2 (Example 2)
Method: Twelve male patients were recruited for the study who had diabetes mellitus type 2 for at least one year. Patients were admitted to a Research Unit after given written informed consent and after the experimental protocol had been explained to them. The mean age of the patients was 55±2 years; their mean HbA1C was 8.1±4 and their mean BMi was 29.4±1.2. Seven patients were on oral antidiabetics. The participants were tested on two different days in a placebo-controlled, randomized, double-blind, crossover study. The two test days were separated by at least one week and by no more than three weeks.
On each test day, patients arrived in the Research Unit in the morning, having fasted overnight. A standardized, fixed energy breakfast was then served and it had to be completed before 8:30 a.m. After breakfast, patients were able to read and listen to music. At 11:00 a.m., two venflon catheters were inserted into the anticubital veins of each arm, one for infusion, the other one for blood drawing. […] Infusions were delivered by ambulatory infusion pumps. 60 min after the start of the respective infusion, a test meal was presented and the participants were invited to eat and drink as much as they liked.
Beginning with the infusions, participants scored their subjective feelings of hunger and fullness in 15 min intervals throughout the experiments using visual analogue scales (VAS) of 0–10 with text expressing the most positive and most negative rating anchored at each end. VAS were used to assess hunger, fullness, and prospective food consumption using scales and scores which have previously been designed.
Each subject was free to eat and drink as much as they wished until “comfortably satisfied” of a standard meal which consisted of a) orange juice as an appetizer (480 kcal/l); b) ham sandwiches (60 g, 10 g butter, 25 g ham: 266 kcal/sandwich) with more orange juice or with water; c) strawberry mousse (100 kcal/100 g); d) coffee with cream (coffee could be sweetened with aspartam if desired; both cream and aspartan were optional; 12 g cream=20 kcal). No additional food or fluid was allowed during the study. In addition, the order of food intake had to follow the above schedule. To reduce participants' awareness of the amount of food being provided, food was served in excess. The quantity of food eaten and the quantity of fluid drunk were measured. From these observations, the total energy intake could be calculated. In the pre-meal period and after eating, blood samples were taken in regular intervals for glucose and hormone determinations. Adverse events were assessed by the attending physician through close observation of each patient; in addition, each participant was questioned after each experiment and after they had completed the two tests whether they had experienced any adverse events.
The peptide was dissolved in 0.9% saline solution containing 0.5% human serum albumin and prepared under aseptic conditions by the University of Basel Hospital Pharmacy. Aliquots of 50 μg/5 ml were stored at −20° C. […] The solutions were prepared by a pharmacist who was not involved in the study. The physician in charge of the experiment was therefore not aware of the respective treatment, thereby making it possible to conduct treatments in a double-blind fashion.
The amount of food eaten and the amount of fluid drunk as well as the corresponding energy intake were compared between the two treatments by Wilcoxon Signed Ranks Test using an SAS software package. […] Scores for hunger and fullness were compared by calculating the S score from baseline (0 min) to 60 min of infusion using the Wilcoxon Signed Ranks Test. Differences were considered significant if p was <0.05.

[3] = Plasma glucose and hormone concentrations during GLP-1 infusion (Example 2); format: in vivo, human; settings: diabetes mellitus type 2
Method: Blood was drawn through the indwelling anticubital cannula into syringes on ice. These contained EDTA (6 μmol/l) and aprotinine (1000 KIU/l). After centrifugation, plasma hormone analyses were kept frozen at −20° C. Plasma glucose was analyzed by the glucose oxidase method. Insulin and glucagon concentrations in plasma were analyzed by commercially available radioimmunoassay kits (Biermann, Bad Nauheim, Germany). Immunoreactive GLP-1 was measured using the specific polyclonal antibody GA 1178 (Affinity Research, Nottingham, UK). Immunoreactivities were extracted from plasma samples on C-18 cartridges using acetonitrile for elution of samples. The detection limit of the assay was 0.25 pmol/l. Intra-and interassay coefficients of variation were 3.8% and 10.9%, respectively.
Differences were considered significant if p was <0.05.

rats = settings: cited from earlier work
obese humans = settings: infusion of GLP-1 over 210 minutes; cited from earlier work
[4] = GLP-1 0.375 pmol/kg/min i.v. infusion
[5] = GLP-1 0.75 pmol/kg/min i.v. infusion
[6] = GLP-1 1.5 pmol/kg/min i.v. infusion
[7] = pre-meal period, significant only for highest dose of GLP-1, healthy male subjects
[8] = GLP-1 1.5 pmol/kg per min i.v. vs saline, diabetes mellitus type 2
[9] = GLP-1 1.5 pmol/kg per min i.v., 12 patients with diabetes mellitus type 2, mean ± SEM
[10] = pre-meal period, baseline vs 60 min of infusion, diabetes mellitus type 2

## CC[C@H](C)[C@H](NC(=O)[C@H](Cc1ccccc1)NC(=O)[C@H](CCC(=O)O)NC(=O)[C@H](CCCCN)NC(=O)[C@H](C)NC(=O)[C@H](C)NC(=O)[C@H](CCC(N)=O)NC(=O)CNC(=O)[C@H](CCC(=O)O)NC(=O)[C@H](CC(C)C)NC(=O)[C@H](Cc1ccc(O)cc1)NC(=O)[C@H](CO)NC(=O)[C@H](CO)NC(=O)[C@@H](NC(=O)[C@H](CC(=O)O)NC(=O)[C@H](CO)NC(=O)[C@@H](NC(=O)[C@H](Cc1ccccc1)NC(=O)[C@@H](NC(=O)CNC(=O)[C@H](CCC(=O)O)NC(=O)[C@H](C)NC(=O)[C@@H](N)Cc1c[nH]cn1)[C@@H](C)O)[C@@H](C)O)C(C)C)C(=O)N[C@@H](C)C(=O)N[C@@H](Cc1c[nH]c2ccccc12)C(=O)N[C@@H](CC(C)C)C(=O)N[C@H](C(=O)N[C@@H](CCCCN)C(=O)NCC(=O)N[C@@H](CCCNC(=N)N)C(N)=O)C(C)C [GLP-1, Glucagon-like peptide-1 (7–36) amide]
Healthy male subjects; [4]
  Calorie intake: 1520 ± 95 keal
  Fluid intake: 748 ± 52 mL
  Food quantity: 531 ± 35
  Meal duration: 35 ± 3 min
Healthy male subjects; [5]
  Calorie intake: 1451 ± 101 keal
  Fluid intake: 689 ± 48 mL
  Food quantity: 516 ± 40
  Meal duration: 34 ± 3 min
Healthy male subjects; [6]
  Calorie intake: 1107 ± 84 keal
  Fluid intake: 584 ± 45 mL
  Food quantity: 384 ± 34
  Meal duration: 30 ± 3 min
Healthy male subjects; GLP-1 i.v. infusion vs control, healthy male subjects
  reduction of fluid ingestion: 18%
Healthy male subjects; any infusion (0.375-1.5 pmol/kg per min i.v.), healthy male subjects
  side effects / adverse reactions: None of the participants reported any abdominal discomfort or side effects; also recorded: no overt side effects
Healthy male subjects; [7]
  subjective feeling of fullness (visual analogue scale 0–10): concomitant feeling of fullness; also recorded: early fullness
  subjective feeling of hunger (visual analogue scale 0–10): reduced degree of hunger; also recorded: less hunger
[1]; any dose of GLP-1 administered
  leptin levels: did not change
[1]; graded i.v. doses of GLP-1 in 5% glucose
  blood glucose and plasma insulin concentrations: dose-dependent, short-lasting increase
[1]; highest dose of GLP-1 (1.5 pmol/kg per min) i.v. infusion
  plasma GLP-1 concentration: supraphysiological plasma concentrations
[1]; pre-meal period, any dose of GLP-1
  plasma CCK concentrations: did not change
[2]; [8]
  decrease in calorie intake: 27%
  maximal reduction in food consumption: 29%
[2]; [9]
  Calorie intake: 694 ± 79 kcal
  Fluid intake: 360 ± 60 mL
  Food quantity: 268 ± 31 g
[2]; GLP-1 1.5 pmol/kg per min i.v., diabetes mellitus type 2
  side effects / adverse reaction: None of the participants reported any abdominal discomfort or side effects
[2]; [10]
  fullness (VAS 0–10): increased feeling of fullness
  hunger (VAS 0–10): reduced degree of hunger
[3]; GLP-1 1.5 pmol/kg per min i.v. vs saline
  glucagon response: significantly reduced
[3]; GLP-1 1.5 pmol/kg per min i.v.
  plasma concentrations of GLP-1: increased the plasma concentrations of GLP-1
[3]; GLP-1 1.5 pmol/kg per min i.v., saline 1197±101
  blood glucose AUC: 765 ± 65 mmol·min/L
[3]; GLP-1 1.5 pmol/kg per min i.v., saline 1775±357
  insulin AUC: 2920±516 μU×min/L
rats; intracerebroventricular administration, fasted rats
  food intake / feeding: reduce food intake; also recorded: inhibited feeding
rats; intraperitoneal application, rats
  food intake: did not have any effect
Obese humans
  effect on appetite: no effect on appetite

## exendin (9–39) [reference compound]
rats; GLP-1 injected into the cerebral ventricles of fasted rats
  effect on GLP-1-induced inhibition of feeding: blocked
rats; exendin (9–39) alone, satiated rats
  food intake: doubled food intake
